Consider 2 compounds from patent US20070232681A1, “Compounds Having Crth2 Antagonist Activity” (Oxagen Limited, priority 2003, published 2007).

SMILES strings stand for the structures. A value given as a limit tells only on which side of the number the result lay.

One assay concerns the target T1, DP receptor (Homo sapiens, UniProt Q13258).
T1 construct: expressed in transfected cells; host or cells: Chinese Hamster Ovary (CHO) cells, G418 selected
T1 sequence (Q13258 1-359): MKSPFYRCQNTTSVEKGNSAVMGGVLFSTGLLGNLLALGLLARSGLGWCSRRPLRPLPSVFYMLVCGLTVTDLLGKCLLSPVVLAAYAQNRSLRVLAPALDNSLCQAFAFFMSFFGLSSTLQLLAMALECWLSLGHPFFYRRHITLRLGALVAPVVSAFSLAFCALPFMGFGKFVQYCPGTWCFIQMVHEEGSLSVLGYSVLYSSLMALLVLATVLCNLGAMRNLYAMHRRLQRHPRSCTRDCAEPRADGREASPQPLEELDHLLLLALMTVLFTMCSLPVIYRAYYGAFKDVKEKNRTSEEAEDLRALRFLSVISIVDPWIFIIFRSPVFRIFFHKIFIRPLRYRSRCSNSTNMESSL
Briefly: [3H]PGD2 radioligand binding on CHO/DP cell membranes. As to conditions: competition versus [3H]PGD2, CHO/DP membranes. The protocol:
(§1) Chinese Hamster Ovary cells were transfected with CRTH2 or DP receptors (CHO/CRTH2 and CHO/DP) and were maintained in culture in a humidified atmosphere at 37° C. (5% CO2) in Minimum Essential Medium (MEM) supplemented with 10% foetal bovine serum, 2 mM glutamine, and 1 mg ml^−1 active G418. The cells were passaged every 2-3 days. For radioligand binding assay, cells were prepared in triple-layer flasks or in 175 cm^2 square flasks (for membrane preparation). For calcium mobilisation assay, cells were grown in a 96 well plate 24 h prior to the assay at a density of 80,000 cells per well.
(§2) Membranes were prepared either from CHO/CRTH2 and CHO/DP cells, or from platelets (as a source of TP receptors). CHO cells grown to confluency were washed with PBS and detached using a Versene solution (15 ml per flask). When the cells were grown in 175 cm^2 square flask, they were collected by scrapping in PBS. The cell suspensions were centrifuged (1,700 rpm, 10 min, 4° C.) and resuspended in 15 ml of buffer (1×HBSS, supplemented with 10 mM HEPES, pH 7.3). Cell suspensions were then homogenised using an Ultra Turrax at setting 4-6 for 20 s. The homogenate was centrifuged at 1,700 rpm for 10 min and the supernatant was collected and centrifuged at 20,000 rpm for 1 h at 4° C. The resulting pellet was resuspended in buffer and stored at −80° C. in aliquots of 200-500 μl. The protein concentration was determined by the method of Bradford (1976), using bovine serum albumin as standard. The platelets were washed by centrifugation at 600×g for 10 min and resuspended in ice-cold assay buffer (10 mM Tris-HCl, pH 7.4, 5 mM Glucose, 120 mM NaCl, 10 μM indomethacin) and directly centrifuged at 20,000 rpm for 30 min at 4° C. The resulting pellet was treated as described above.
(§3) [3H]PGD2 (160 Ci/mmol) binding experiments were performed on membranes prepared as described above. Assays were performed in a final volume of 100 μl of buffer (1×HBSS/HEPES 10 mM, pH 7.3). Cell membranes (15 μg). Cell membranes […] were preincubated at room temperature with varying concentration of competing ligand for 15 min. [3H]PGD2 ([…]) was then added and the incubation continued for a further one hour at room temperature. The reaction was terminated by the addition of 200 μl ice-cold assay buffer to each well, followed by rapid filtration through Whatman GF/B glass fibre filters using a Unifilter Cell harvester (PerkinElmer Life Sciences) and six washes of 300 μl of ice-cold buffer. The Unifilter plates were dried at room temperature for at least 1 h and the radioactivity retained on the filters was determined on a Beta Trilux counter (PerkinElmer Life Sciences), following addition of 40 μl of Optiphase Hi-Safe 3 (Wallac) liquid scintillation. Non specific binding was defined in the presence of […] unlabelled PGD2. Assays were performed in duplicate.

In assay [1] the target is T2, CRTH2 (Homo sapiens, UniProt Q9Y5Y4).
T2 construct: expressed in transfected cells; host or cells: Chinese Hamster Ovary (CHO) cells, G418 selected
T2 sequence (Q9Y5Y4 1-395): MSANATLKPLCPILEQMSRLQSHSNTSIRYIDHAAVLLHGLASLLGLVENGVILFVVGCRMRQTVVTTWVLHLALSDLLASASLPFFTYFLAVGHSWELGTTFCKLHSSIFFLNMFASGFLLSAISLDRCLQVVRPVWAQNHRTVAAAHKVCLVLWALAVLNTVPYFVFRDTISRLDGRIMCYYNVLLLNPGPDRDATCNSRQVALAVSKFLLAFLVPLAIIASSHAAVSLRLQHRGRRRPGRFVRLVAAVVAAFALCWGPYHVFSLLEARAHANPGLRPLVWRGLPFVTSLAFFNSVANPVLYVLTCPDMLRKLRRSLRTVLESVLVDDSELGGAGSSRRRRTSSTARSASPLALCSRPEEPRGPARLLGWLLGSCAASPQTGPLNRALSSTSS
Briefly: Calcium mobilisation assay in CHO/CRTH2 cells (PGD2-induced calcium flux). The settings on record: inhibition of PGD2-induced calcium flux, read-out: CRTH2 Ca flux IC50. It counts as cell-based. The protocol: as §1
Cells were seeded onto poly-D-lysine coated 96-well plates at a density of 80,000 cells per well and incubated at 37° C. overnight to allow the cells to adhere. Cells were washed twice with HBSS and incubated for 1 h at 37° C. in 100 μl HBSS and 100 μl calcium-3-dye (Molecular Devices) solution, supplemented with 4 mM probenecid. Changes in fluorescence were monitored over a 50 s time course with agonist addition at 17s using a Flexstation (Molecular Devices).

The target of assay [2] is T2, CRTH2. Briefly: [3H]PGD2 radioligand binding on CHO/CRTH2 cell membranes. The settings on record: competition versus [3H]PGD2, CHO/CRTH2 membranes. The protocol: as §1, §2, §3

Consider `Cc1cccc(NS(=O)(=O)c2c(C)n(CC(=O)O)c3ccc(F)cc23)c1` [Compound 21, (5-Fluoro-2-methyl-3-m-tolylsulfamoyl-indol-1-yl)-acetic acid], for which the Ki at DP receptor is over 10000 nM; at CRTH2 [2] it was 176 nM. The IC50 at CRTH2 [1] is 1060 nM.
`CCCCS(=O)(=O)c1c(C)n(CC(=O)O)c2ccc(F)cc12` [Compound 1, [3-(Butane-1-sulfonyl)-5-fluoro-2-methyl-indol-1-yl]-acetic acid]: the inhibition constant Ki at DP receptor is over 10000 nM; at CRTH2 [2], 192 nM. The IC50 at CRTH2 [1] was found to be 280 nM.
